The values that follow come from US4624953A, “1-piperazinocarboxylates and pharmaceutical compositions containing them” (priority 1981, dated 1986).

Read-outs that look alike come from different tables or passages of the source.

Test [1] concerns isolation-induced aggressive behaviour. The experiment in a line: Isolation-induced aggressive behaviour test. As to conditions: Mus musculus, sc, read-out: ED50, isolation induced aggressive behaviour. Format: in vivo, male NMRI mice. The source says:
Male mice subjected to prolonged isolation develop aggressive behaviour against each other when paired (Yen, C. Y. et al., Arch. Int. Pharmacodyn. 123, 179, (1959); Valzelli, L., Adv. Pharmacol. 5, 79 (1967)). […] The clinical correlation of this test indicates tranquillizing and anxiolytic activities as well as antiaggressive properties as such (Duncan, R. L. et al., J. Med. Chem. 13, 1 (1970)).
This type of aggression is interesting because it is known that this kind of emotional behaviour might be located in limbic structures in the brain (MacLean, P. D., Psychosom. Med. 11, 338 (1949)).
Every week male NMRI mice, weighing 20-22 g, were isolated in Makrolon cages for three weeks with diet and water ad libitum. A piece of cardboard was placed between the cages to prevent visual contact.
To test aggressiveness the mice were paired in a neutral area, a beaker (14 cm high and diameter 14 cm). A pair is considered aggressive if both the animals show clear signs of fighting within 5 min. This fighting is characterized by biting and vocalization. As soon as fighting is seen, the mice are separated and brought to their home cage. […] Animals showing no aggression are discarded. […] The test substance is administered s.c. (0.2-0.4 ml/20 g). The mice are paired 0.5 h after the injection for trials of 5 min. duration.
The ED50 -value (mg/kg) reported is the dose inhibiting aggressive behaviour among 50 percent of the pairs 0.5 hour after drug administration.

The test system is the same in test [2]. The note with it: background statement on clinically used drugs; cited from earlier work.
Test [3] deals with conditioned avoidance response. The experiment in a line: Conditioned avoidance response (CAR), shuttle box. It is filed as in vivo, female rats. As to conditions: Rattus norvegicus, sc. As for the experimental part:
The effect of the test compounds on CAR was evaluated in a shuttle box, manufactured by Ugo Basile, Italy. The female rats, weighing 150 g, were trained to avoid an electric shock (unconditioned stimulus--US) by escaping from one compartment to the other when the light from a 15 W lamp switched on (conditions stimulus--CS). When they responded to the CS, a conditioned response (CR) was considered to have been elicited.
Rats showing a stable CR of more than 80% after a three weeks' training program were used in the experiments. Groups of six rats were subcutaneously administered with various doses of the test compounds. 11/2 and 4 hours after the administration each rat was placed in the experimental box and the effect on CR was evaluated.
The mechanisms regulating conditioned responses are very complex. Both catecholaminergic and hormonal factors are of importance. [drawing 13]

The mark [4] stands for this setting: 0.5 h after administration, dose inhibiting aggressive behaviour among 50 percent of the pairs.
Setting [5] is: 1.5 hr after administration, dose inhibiting CR in 50% of the animals, read-out: ED50, conditioned avoidance behaviour, 1.5 hr.
The mark [6] stands for this setting: 4 hr after administration, dose inhibiting CR in 50% of the animals, read-out: ED50, conditioned avoidance behaviour, 4 hr.

As a reminder, the ED50 is the dose at which the effect has come halfway, by size or by number of responders. In the case of `CN(C)CCC=C1c2ccccc2CCc2ccccc21` [Amitriptyline], in test [1] (setting [4]), the ED50 was determined as 5 mg/kg.

Consider `CN1C(=O)CN=C(c2ccccc2)c2cc(Cl)ccc21` [Diazepam], for which the “activity on isolation-induced aggressive behaviour (in words)” value in test [2] is “active on this kind of aggressive behaviour”.

Take `COC(=O)N1CCN(CCCC(c2ccc(F)cc2)c2ccc(F)cc2)CC1.Cl` [I (a), 1-Carbomethoxy-4-[4,4-bis(p-fluorophenyl)butyl]piperazine hydrochloride]: the ED50 in test [1] (setting [4]) is 6 mg/kg; in test [3] (setting [5]), 45 mg/kg; in test [3] (setting [6]) it was 12 mg/kg.

For `CN(C)CCCN1c2ccccc2Sc2ccc(Cl)cc21` [Chlorpromazine], the 50% effective dose (ED50) in test [1] (0.5 h) was 1.4 mg/kg; in test [3] (1.5 h, read-out: ED50, conditioned avoidance behaviour, 1.5 hr), 3.5 mg/kg; in test [3] (4 h, read-out: ED50, conditioned avoidance behaviour, 4 hr), 5.2 mg/kg.

For the compound `CSc1ccc2c(c1)N(CCC1CCCCN1C)c1ccccc1S2` (centres unmarked) [Thioridazine], the ED50 was determined as 5 mg/kg in test [1] (setting [4]), 41 mg/kg in test [3] (setting [5]) and 40 mg/kg in test [3] (setting [6]).
